Measurements taken from PubChem BioAssay (NCI).
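Exposure lasted 48 hours, with cells grown in 96-well plates and compounds tested at five concentrations. At the GI50, growth is halved. Definition used: TGI = concentration required for complete inhibition of growth.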

Tests used:
Experiment in all cases: inhibition of tumour cell growth, NCI panel, 48 h
A498 renal = tested on: A498 renal
HCT-15 colon = tested on: HCT-15 colon
K-562 leukemia = tested on: K-562 leukemia
OVCAR-3 ovarian = tested on: OVCAR-3 ovarian
OVCAR-4 ovarian = tested on: OVCAR-4 ovarian
SK-MEL-2 melanoma = tested on: SK-MEL-2 melanoma
SW-620 colon = tested on: SW-620 colon
U251 CNS = tested on: U251 CNS
SK-MEL-5 melanoma = tested on: SK-MEL-5 melanoma
MDA-MB-435 = tested on: MDA-MB-435

SMILES	TGI (A498 renal)	TGI (HCT-15 colon)	TGI (K-562 leukemia)	TGI (OVCAR-3 ovarian)	TGI (OVCAR-4 ovarian)	TGI (SK-MEL-2 melanoma)	TGI (SW-620 colon)	TGI (U251 CNS)	TGI (SK-MEL-5 melanoma)	GI50 (A498 renal)	GI50 (HCT-15 colon)	GI50 (K-562 leukemia)	GI50 (OVCAR-3 ovarian)	GI50 (OVCAR-4 ovarian)	GI50 (SK-MEL-2 melanoma)	GI50 (SK-MEL-5 melanoma)	GI50 (SW-620 colon)	GI50 (U251 CNS)	GI50 (MDA-MB-435)	TGI (MDA-MB-435)
O=C(O)NC(c1ccccc1)C(NC(=O)c1ccccc1)c1ccccc1 (stereo unspecified)	> 100 µM	> 100 µM	> 100 µM	> 100 µM	> 100 µM	> 100 µM	> 100 µM	> 100 µM	–	–	–	–	–	–	–	–	–	–	–	–
O=C(O)Cc1cc(=O)[nH]c2c1/C(=N/O)CCC2	–	> 100 µM	> 100 µM	> 100 µM	–	> 100 µM	> 100 µM	> 100 µM	> 100 µM	–	–	–	–	–	–	–	–	–	–	–
C[C@]12CCC(=O)C(O)=C1CC[C@@H]1C2CC[C@]2(C)NC(=O)CCC12 (stereo partly specified)	> 100 µM	> 100 µM	> 100 µM	> 100 µM	> 100 µM	> 100 µM	> 100 µM	> 100 µM	> 100 µM	–	–	–	–	–	–	–	–	–	–	–
CC(=O)[CH-]C(=O)c1ccccc1.CC(=O)[CH-]C(=O)c1ccccc1.CC(C)CCCC(C)[C@H]1CCC2[C@@H]3CC=C4C[C@@H]([O-])CC[C@]4(C)C3CC[C@@]21C.CC(C)CCCC(C)[C@H]1CCC2[C@@H]3CC=C4C[C@@H]([O-])CC[C@]4(C)C3CC[C@@]21C.[Ti+4] (stereo partly specified)	> 100 µM	> 100 µM	> 100 µM	> 100 µM	> 100 µM	> 100 µM	> 100 µM	> 100 µM	> 100 µM	> 100000 nM	> 100000 nM	> 100000 nM	> 100000 nM	> 100000 nM	> 100 µM	> 100000 nM	> 100000 nM	> 100000 nM	–	–
COc1ccc(C(=O)C(C(=O)CC(=O)Nc2cccc(C(F)(F)F)c2)c2ccc(OC)cc2)cc1 (stereo unspecified)	> 100 µM	> 100 µM	> 100 µM	> 100 µM	> 100 µM	> 100 µM	> 100 µM	> 100 µM	> 100 µM	–	–	–	–	–	–	–	–	–	–	–
O=C(Nc1ccc(Cl)cc1Cl)C1C(=O)C(=O)N(c2ccc(Cl)cc2Cl)C1=O (stereo unspecified)	> 100 µM	> 100 µM	–	> 100 µM	> 100 µM	–	> 100 µM	> 100 µM	> 100 µM	–	–	–	–	–	–	–	–	–	–	–
O=C1C=CC(=O)C12CCc1ccccc12	> 100 µM	> 100 µM	> 85.1 µM	> 100 µM	> 100 µM	> 100 µM	> 100 µM	> 100 µM	> 100 µM	–	–	–	–	–	–	–	–	–	–	–
O=C(CCc1nnc2s/c(=C\c3ccc(Cl)c(Cl)c3)c(=O)n12)Nc1ccc(Cl)c(Cl)c1	> 100 µM	> 100 µM	> 100 µM	> 100 µM	> 100 µM	–	> 100 µM	> 100 µM	> 100 µM	–	–	–	–	–	–	–	–	–	–	–
Cn1nc(-c2ccccc2)c(C(=O)/C=C/c2ccc(Cl)cc2)c(N2CCCCC2)c1=O	–	15 µM	5.39 µM	–	–	–	16.6 µM	3.82 µM	3.75 µM	–	–	–	–	–	–	–	–	–	–	–
CCOc1ccc(N=Cc2ccc3cc(C)ccc3n2)cc1	> 100 µM	> 100 µM	69.8 µM	> 100 µM	> 100 µM	> 100 µM	> 100 µM	> 100 µM	> 100 µM	–	–	–	–	–	–	–	–	–	–	–
CC(=O)c1cccc(C)c1C(=O)O	> 100 µM	> 100 µM	> 100 µM	> 100 µM	> 100 µM	> 100 µM	> 100 µM	> 100 µM	> 100 µM	–	–	–	–	–	–	–	–	–	–	–
O=C1CC(=O)N(C(=O)c2nn(-c3ccc(Cl)cc3)cc2O)N1	–	> 100 µM	8.15 µM	6.16 µM	> 100 µM	> 100 µM	> 100 µM	> 100 µM	12 µM	–	486 nM	292 nM	1310 nM	1510 nM	> 100 µM	1690 nM	2190 nM	147 nM	355 nM	> 100 µM
O=C1O[C@H](c2ccccc2)[C@@H]2CC3(CCN12)OCCO3	> 100 µM	> 100 µM	> 100 µM	> 100 µM	> 100 µM	> 100 µM	> 100 µM	> 100 µM	> 100 µM	–	–	–	–	–	–	–	–	–	–	–
CCN(CC)CCCNC(=O)C1COc2cc(-c3cc(=O)c4ccccc4o3)ccc2O1 (stereo unspecified)	> 100 µM	> 100 µM	> 100 µM	> 100 µM	> 100 µM	–	> 100 µM	> 100 µM	37.6 µM	–	–	–	–	–	–	–	–	–	–	–
N#CC1=C(N)Oc2c(ccc3ccccc23)C1c1ccccc1 (stereo unspecified)	0.0809 µM	10.7 µM	22.6 µM	2.2 µM	14.5 µM	12.6 µM	18.6 µM	15.1 µM	0.451 µM	18.5 nM	47.8 nM	32.2 nM	35.7 nM	63 nM	0.0517 µM	34.6 nM	38.8 nM	45.4 nM	–	–
NC(=O)CCC(Nc1c2ccccc2nc2ccccc12)C(=O)O (stereo unspecified)	–	> 100 µM	> 100 µM	> 100 µM	80.8 µM	> 100 µM	> 100 µM	> 100 µM	–	–	–	–	–	–	–	–	–	–	–	–
COc1cc(OC)c(SSCCCCS(=O)O)c(OC)c1	33.6 µM	34.2 µM	89.3 µM	28.6 µM	> 100 µM	54.6 µM	28.4 µM	27.9 µM	22.3 µM	–	–	–	–	–	–	–	–	–	–	–
CC1=C(C(=O)Nc2cc(=O)n(C)c(=O)n2C)C(c2cccc([N+](=O)[O-])c2)C(C(=O)Nc2cc(=O)n(C)c(=O)n2C)=C(C)N1	> 100 µM	–	> 100 µM	> 100 µM	> 100 µM	> 100 µM	> 100 µM	> 100 µM	> 100 µM	–	–	–	–	–	–	–	–	–	–	–
COc1ccc2c3c([nH]c2c1[N+](=O)[O-])C(C)N(Cc1ccc([N+](=O)[O-])cc1)CC3 (stereo unspecified)	63.7 µM	54.9 µM	77.1 µM	64.7 µM	12.2 µM	41 µM	> 100 µM	46.9 µM	–	–	–	–	–	–	–	–	–	–	–	–
Cc1cccc(C)c1CO	–	> 100 µM	> 100 µM	> 100 µM	> 100 µM	> 100 µM	> 100 µM	> 100 µM	–	–	–	–	–	–	–	–	–	–	–	–
CC(=O)CC(N)=O	> 100 µM	> 100 µM	> 100 µM	> 100 µM	> 100 µM	> 100 µM	> 100 µM	> 100 µM	> 100 µM	–	–	–	–	–	–	–	–	–	–	–
COC(=O)C1=C(O)c2cc(-c3ccccc3)c(-c3ccccc3)c(C#N)c2NC(=O)C1	> 100 µM	> 100 µM	> 100 µM	> 100 µM	> 100 µM	> 100 µM	–	> 100 µM	–	–	–	–	–	–	–	–	–	–	–	–
